≈ marks a conversion by molar mass, not a printed value.
How the values were obtained:
[1] = Water solubility; assay type: physicochemical
[2] = Antitumor activity for L1210 (life prolonging effect, mouse leukemia transplanted intraperitoneally); assay type: in vivo; settings: mouse, in vivo, ip; numerator of therapeutic index; i.p. total dose; read-out: Maximum tolerable dose
Procedure: (§1) 5×10^5 cells of mouse leukemia L1210 were transplanted intraperitoneally to a group of six female CDF1 mice (7 weeks old, body weight 17-19 g). The test compound was administered intraperitoneally on day 1, 5 and 9 and its life prolonging effect was observed.
(§2) In a case of the administration of a test compound as an acid addition salt the test compound was dissolved in water. The total administration amount was 1.56 mg/kg-400 mg/kg. The antitumor activity was expressed by the value (T/C%) wherein T denotes the mean survival days in the drug administered group and C denotes those in the non administered group. In case of equal to or more than 125% the drug is considered to be effective.

[3] = tested on: mouse leukemia L1210; test: as above; assay type: in vivo; settings: for minimal effective dose: Mus musculus, L1210, ip, denominator of therapeutic index, i.p. total dose, read-out: Minimum effective dose; for 40-day survivors: at optimum dose, group of six female CDF1 mice; for Therapeutic Index (Maximum tolerable dose/Minimum effective dose): i.p., L1210, CDF1 mice
Procedure: as §1, §2

[4] = Acute toxicity test by intraperitoneal administration; settings: mouse, in vivo, ip, ICR male mice, 1 week observation
Procedure: Acute toxicity test was conducted by intraperitoneal administration using a group of twenty ICR male mice (4 weeks old, body weight around 20 g).
LD50 value was calculated by the Richfield-Willcokson method from a lethal ratio observing the fate of mice during 1 week after administration of a test compound.

Structure (SMILES)	solubility [1] [mg/mL]	MTD [2] [mg/kg]	minimal effective dose [3] [mg/kg]	40-day survivors [3]	Therapeutic Index (Maximum tolerable dose/Minimum effective dose) [3]	LD50 at 168 h [4] [mg/kg]
CCc1c2c(nc3cc(Cl)c(Cl)cc13)-c1cc([C@@](O)(CC)C(=O)NCCN(C)C)c(COC(=O)CCSC)c(=O)n1C2 [Compound C19]	24 (≈ 37.8 mM)	3.13	< 1.56	0/6	> 2	94.8
CCC(=O)OCc1c([C@@](O)(CC)C(=O)NCCN(C)C)cc2n(c1=O)Cc1c-2nc2cc(F)c(OC)cc2c1CC [Compound C20]	> 60	3.13	< 1.56	0/6	> 2	84.5
CCCC(=O)OCc1c([C@@](O)(CC)C(=O)NCCN(C)C)cc2n(c1=O)Cc1c-2nc2cc(F)c(OC)cc2c1CC [Compound C21]	> 63	3.13	< 1.56	0/6	> 2	124
CCC(=O)OCc1c([C@@](O)(CC)C(=O)NCCN(C)C)cc2n(c1=O)Cc1c-2nc2cc(F)c(C)cc2c1CC [Compound C23]	20 (≈ 36.2 mM)	12.5	< 1.56	0/6	> 8	184
CCCC(=O)OCc1c([C@@](O)(CC)C(=O)NCCN(C)C)cc2n(c1=O)Cc1c-2nc2cc(F)c(C)cc2c1CC [Compound C24]	42 (≈ 74.1 mM)	25	1.56	1/6	> 16	203
CCc1c2c(nc3cc(F)c(C)cc13)-c1cc([C@@](O)(CC)C(=O)NCCN(C)C)c(COC(=O)CCSC)c(=O)n1C2 [Compound C25]	> 63	12.5	< 1.56	1/6	> 8	154
CCc1c2c(nc3cc(F)c(C)cc13)-c1cc([C@@](O)(CC)C(=O)NCCN(C)C)c(COC(=O)c3ccc(OC)cc3)c(=O)n1C2 [Compound C26]	9 (≈ 14.3 mM)	50	12.5	0/6	> 4	113
CCC(=O)OCc1c([C@@](O)(CC)C(=O)NCCN(C)C)cc2n(c1=O)Cc1c-2nc2ccc(O)cc2c1CC [Compound C28]	> 56	200	12.5	0/6	16	341
CCCC(=O)OCc1c([C@@](O)(CC)C(=O)NCCN(C)C)cc2n(c1=O)Cc1c-2nc2ccc(O)cc2c1CC [Compound C30]	> 58	200	6.25	0/6	32	362
CCc1c2c(nc3ccc(O)cc13)-c1cc([C@@](O)(CC)C(=O)NCCN(C)C)c(COC(=O)CCSC)c(=O)n1C2 [Compound C32]	> 62	200	6.25	0/6	32	307
CCc1c2c(nc3ccc(O)cc13)-c1cc([C@@](O)(CC)C(=O)NCCN(C)C)c(COC(=O)c3ccc(F)cc3)c(=O)n1C2 [Compound C36]	17 (≈ 28.2 mM)	200	12.5	0/6	16	477
CCc1c2c(nc3ccc(O)cc13)-c1cc([C@@](O)(CC)C(=O)NCCN(C)C)c(COC(=O)c3cccc(F)c3)c(=O)n1C2 [Compound C38]	6 (≈ 9.96 mM)	200	12.5	0/6	16	421

From patent publication US5843954A, “Camptothecin derivatives, preparations thereof and antitumor agents” (priority 1994, dated 1998)
